This passage reports MIC results from patent publication US9278091B2, “Compounds for the treatment of Clostridium difficile associated disease” (Summit Therapeutics PLC, priority 2010, dated 2016).

The structures appear in SMILES notation.

Holding throughout (type): cell-based
Assay [1] relates to Clostridium difficile ATCC700057. As to the kind of experiment: MIC by broth microdilution (CLSI) against Clostridium difficile. The following applies: Clostridioides difficile, read-out: minimum inhibitory concentration (MIC) C. difficile. Here is the method:
(§1) The term “minimum inhibitory concentration” or “MIC” defines the lowest concentration of a test compound that is needed to inhibit growth of a bacterial isolate in vitro. A common method for determining the MIC of an antibiotic is to prepare several tubes containing serial dilutions of the test compound that are then inoculated with the bacterial isolate of interest.
(§2) MIC data were determined by broth microdilution according to CLSI protocols described in Methods for Antimicrobial Susceptibility Testing of Anaerobic Bacteria; Approved Standard-Seventh Edition [M11-A7, Vol. 27, No 2, January 2007] and Methods for Dilution Antimicrobial Susceptibility Tests for Bacteria That Grow Aerobically; Approved Standard—Seventh Edition [M7-A7, Vol. 26, No 2, January 2006].
(In general: Broth dilution looks for growth in wells or tubes with falling amounts of substance.)

Assay [2] has as its system Bacteroides fragilis ATCC 25285. Kind of assay: MIC by broth microdilution (CLSI) against B. fragilis. The following applies: ATCC25285, read-out: minimum inhibitory concentration (MIC) B. fragilis. On the procedure: as §1, §2
(§3) The bacterial strains used were: • Bacteroides fragilis ATCC 25285 • Escherichia coli ATCC25922 • Lactobacillus paracasei Z1 83 • Bifidobacterium dentium NCTC 11816 • B. adolescentis MWR144 • Staphylococcus aureus ATCC29213 • Enterococcus faecalis ATCC29212

Assay [3] concerns Escherichia coli ATCC25922. As to the kind of experiment: MIC by broth microdilution (CLSI) against E. coli. Conditions: read-out: minimum inhibitory concentration (MIC) E. coli. Here is the method: as §1, §2, §3
The subject of assay [4] is Lactobacillus paracasei Z1 83. As to the kind of experiment: MIC by broth microdilution (CLSI) against L. paracasei. The following applies: Lacticaseibacillus paracasei, Z183, read-out: minimum inhibitory concentration (MIC) L. paracasei. Here is the method:
as §1, §2, §3

For assay [5], the system named is Bifidobacterium dentium NCTC 11816. Kind of assay: MIC by broth microdilution (CLSI) against B. dentium. Conditions: NCTC11816, read-out: minimum inhibitory concentration (MIC) B. dentium. Here is the method:
as §1, §2, §3

The subject of the next assay is B. adolescentis MWR144. As to the kind of experiment: MIC by broth microdilution (CLSI) against B. adolescentis. Conditions: Bifidobacterium adolescentis, read-out: minimum inhibitory concentration (MIC) B. adolescentis. On the procedure: as §1, §2, §3
Assay [6] has as its system Staphylococcus aureus ATCC29213. As to the kind of experiment: MIC by broth microdilution (CLSI) against S. aureus. Conditions: read-out: minimum inhibitory concentration (MIC) S. aureus. Here is the method: as §1, §2, §3
The test system of assay [7] is Enterococcus faecalis ATCC29212. As to the kind of experiment: MIC by broth microdilution (CLSI) against E. faecalis. Conditions: read-out: minimum inhibitory concentration (MIC) E. faecalis. Here is the method:
as §1, §2, §3

On to `c1cc(-c2nc3ccc(-c4ccc5[nH]c(-c6ccc7[nH]cnc7c6)nc5c4)cc3[nH]2)ccn1` [Example 4, 6-(2′-(pyridin-4-yl)-1H,3′H-5,5′-bibenzo[d]imidazol-2-yl)benzo[d]imidazole], for which the MIC is at most 1 µg/mL in assay [1]; at least 64 µg/mL in assay [2]; at least 64 µg/mL in assay [3]; at least 64 µg/mL in assay [4]; at least 64 µg/mL in assay [5]; at least 64 µg/mL in the assay with B. adolescentis MWR144. Also, the MIC in assay [6] and in assay [7] was at least 64 µg/mL throughout.
For the compound `c1ccc2oc(-c3nc4cc(-c5ccc6[nH]c(-c7ccncc7)nc6c5)ccc4[nH]3)cc2c1` [Example 10, 2-(benzofuran-2-yl)-2′-(pyridin-4-yl)-1H,1′H-5,5′-bibenzo[d]imidazole], the MIC in assay [1] was at most 1 µg/mL; in assay [2] it was at least 64 µg/mL; in assay [3], at least 64 µg/mL; in assay [4], at least 64 µg/mL; in assay [5] it was at least 64 µg/mL; in the assay with B. adolescentis MWR144 it was at most 32 µg/mL. For the same compound, the figures for the MIC in assay [6] and in assay [7] were at most 32 µg/mL and at least 64 µg/mL, respectively.
Take `c1cncc(-c2nc3cc(-c4ccc5[nH]c(-c6cc7cccnc7s6)nc5c4)ccc3[nH]2)c1` [Example 13, 2-(2′-(pyridin-3-yl)-1H,1′H-[5,5′-bibenzo[d]imidazol]-2-yl)thieno[2,3-b]pyridine]: the MIC in assay [1] is at most 1 µg/mL; in assay [2] it was at least 64 µg/mL; in assay [3], at least 64 µg/mL; in assay [4] it was at least 64 µg/mL; in assay [5], at least 64 µg/mL; in the assay with B. adolescentis MWR144, at least 64 µg/mL. In addition, the MIC in assay [6] and in assay [7] was at least 64 µg/mL throughout.
As for `c1cc(-c2nc3cc(-c4ccc5[nH]c(-c6cc7ccncc7s6)nc5c4)ccc3[nH]2)ccn1` [Example 11, 2-(2′-(pyridin-4-yl)-1H,1′H-[5,5′-bibenzo[d]imidazol]-2-yl)thieno[2,3-c]pyridine], the MIC was at most 1 µg/mL in assay [1]; at least 64 µg/mL in assay [2]; at least 64 µg/mL in assay [3]; at least 64 µg/mL in assay [4]; at least 64 µg/mL in assay [5]; at least 64 µg/mL with B. adolescentis MWR144. The MIC in assay [6] and in assay [7] was at least 64 µg/mL in each case.
Regarding `c1cc(-c2nc3ccc(-c4ccc5[nH]c(-c6ccc7sccc7c6)nc5c4)cc3[nH]2)ccn1` [Example 5, 2-(benzo[b]thiophen-5-yl)-2′-(pyridin-4-yl)-1H,3′H-5,5′-bibenzo[d]imidazole], the MIC was at most 1 µg/mL in assay [1]; at least 64 µg/mL in assay [2]; at least 64 µg/mL in assay [3]; at least 64 µg/mL in assay [4]; at least 64 µg/mL in assay [5]; at most 32 µg/mL in the assay with B. adolescentis MWR144. Further, the MIC in assay [6] is at least 64 µg/mL; in assay [7], at most 32 µg/mL.
With `c1ccc2sc(-c3nc4cc(-c5ccc6[nH]c(-c7ccncc7)nc6c5)ccc4[nH]3)cc2c1` [Example 2, 2-(benzo[b]thiophen-2-yl)-2′-(pyridin-4-yl)-1H,1′H-5,5′-bibenzo[d]imidazole], the MIC in assay [1] is at most 4 µg/mL; in assay [2], at least 64 µg/mL; in assay [3], at least 64 µg/mL; in assay [4], at least 64 µg/mL; in assay [5], at least 64 µg/mL; in the assay on B. adolescentis MWR144 it was at least 64 µg/mL. Besides, the MIC in assay [6] and in assay [7] was at least 64 µg/mL in each case.
For `c1cc(-c2nc3ccc(-c4ccc5[nH]c(-c6ccc7c(c6)CCO7)nc5c4)cc3[nH]2)ccn1` [Example 7, 2-(2,3-dihydrobenzofuran-5-yl)-2′-(pyridin-4-yl)-1H,3′H-5,5′-bibenzo[d]imidazole], the MIC in assay [1] was at most 1 µg/mL; in assay [2], at least 64 µg/mL; in assay [3], at least 64 µg/mL; in assay [4] it was at least 64 µg/mL; in assay [5], at least 64 µg/mL; with B. adolescentis MWR144, at most 4 µg/mL. Besides, the MIC in assay [6] was at least 64 µg/mL; in assay [7], at most 4 µg/mL.
`c1cnc2sc(-c3nc4cc(-c5ccc6[nH]c(-c7ccncc7)nc6c5)ccc4[nH]3)cc2c1` [Example 1, 2-(2′-(pyridin-4-yl)-1H,1′H-5,5′-bibenzo[d]imidazol-2-yl)thieno[2,3-b]pyridine]: the MIC in assay [1] was at most 1 µg/mL; in assay [2], at least 64 µg/mL; in assay [3], at least 64 µg/mL; in assay [4], at least 64 µg/mL; in assay [5], at least 64 µg/mL; with B. adolescentis MWR144, at most 32 µg/mL. Moreover, the MIC in assay [6] and in assay [7] was at least 64 µg/mL throughout.
As to `c1cc(-c2nc3cc(-c4ccc5[nH]c(-c6ccc7occc7c6)nc5c4)ccc3[nH]2)ccn1` [Example 3, 2-(benzofuran-5-yl)-2′-(pyridin-4-yl)-1H,1′H-5,5′-bibenzo[d]imidazole], the MIC is at most 1 µg/mL in assay [1]; at least 64 µg/mL in assay [2]; at least 64 µg/mL in assay [3]; at most 32 µg/mL in assay [4]; at most 32 µg/mL in assay [5]; at most 4 µg/mL with B. adolescentis MWR144. The MIC in assay [6] and in assay [7] was at most 1 µg/mL in each case.
Consider `c1cc(-c2nc3cc(-c4ccc5[nH]c(-c6ccc7nccn7c6)nc5c4)ccc3[nH]2)ccn1` [Example 8, 2-(imidazo[1,2-a]pyridin-6-yl)-2′-(pyridin-4-yl)-1H,1′H-5,5′-bibenzo[d]imidazole], for which the MIC in assay [1] was at most 1 µg/mL; in assay [2], at least 64 µg/mL; in assay [3], at least 64 µg/mL; in assay [4], at least 64 µg/mL; in assay [5], at least 64 µg/mL; in the assay with B. adolescentis MWR144, at least 64 µg/mL. Besides, the MIC in assay [6] and in assay [7] was at least 64 µg/mL each time.
Turning to `c1cncc(-c2nc3cc(-c4ccc5[nH]c(-c6ccc7nccn7c6)nc5c4)ccc3[nH]2)c1` [Example 12, 2-(imidazo[1,2-a]pyridin-6-yl)-2′-(pyridin-3-yl)-1H,1′H-5,5′-bibenzo[d]imidazole], the MIC is at most 1 µg/mL in assay [1]; at least 64 µg/mL in assay [2]; at least 64 µg/mL in assay [3]; at least 64 µg/mL in assay [4]; at least 64 µg/mL in assay [5]; at least 64 µg/mL with B. adolescentis MWR144. Also, the MIC in assay [6] and in assay [7] was at least 64 µg/mL throughout.
In the case of `c1cc(-c2nc3cc(-c4ccc5[nH]c(-c6ccc7c(c6)OCO7)nc5c4)ccc3[nH]2)ccn1` [Example 9, 2-(benzo[d][1,3]dioxol-5-yl)-2′-(pyridin-4-yl)-1H,1′H-5,5′-bibenzo[d]imidazole], the MIC in assay [1] was at most 1 µg/mL; in assay [2] it was at least 64 µg/mL; in assay [3] it was at least 64 µg/mL; in assay [4], at least 64 µg/mL; in assay [5] it was at least 64 µg/mL; with B. adolescentis MWR144 it was at least 64 µg/mL. In addition, the MIC in assay [6] and in assay [7] was at least 64 µg/mL each time.
For `c1cc(-c2nc3ccc(-c4ccc5[nH]c(-c6ccc7[nH]ccc7c6)nc5c4)cc3[nH]2)ccn1` [Example 6, 2-(1H-indol-5-yl)-2′-(pyridin-4-yl)-1H,3′H-5,5′-bibenzo[d]imidazole], the MIC was at most 1 µg/mL in assay [1]; at least 64 µg/mL in assay [2]; at least 64 µg/mL in assay [3]; at least 64 µg/mL in assay [4]; at least 64 µg/mL in assay [5]; at most 32 µg/mL with B. adolescentis MWR144. Besides, the MIC was at most 32 µg/mL in assay [6] and at least 64 µg/mL in assay [7].
